This note sets out measurements from patent publication US8372813B2, “Antibacterial aminoglycoside analogs” (Achaogen, Inc., priority 2008, dated 2013).

The subject of assay [1] is E. coli ATCC 25922 (AECO001). In words: MIC assay, CLSI broth microdilution. The format is cell-based. To be noted: Escherichia coli; ATCC25922; Mueller Hinton Broth, 35C, 20 hours. The procedure: (§1) Minimum inhibitory concentrations (MIC) were determined by reference Clinical and Laboratory Standards Institute (CLSI) broth microdilution methods per M7-A7 [2006]. Quality control ranges utilizing E. coli ATCC 25922, P. aeruginosa ATCC 27853 and S. aureus ATCC 29213, and interpretive criteria for comparator agents were as published in CLSI M100-S17 [2007]. Briefly, serial two-fold dilutions of the test compounds were prepared at 2× concentration in Mueller Hinton Broth. The compound dilutions were mixed in 96-well assay plates in a 1:1 ratio with bacterial inoculum. The inoculum was prepared by suspension of a colony from an agar plate that was prepared the previous day. Bacteria were suspended in sterile saline and added to each assay plate to obtain a final concentration of 5×10^5 CFU/mL. The plates were incubated at 35C for 20 hours in ambient air.
In general terms: Dilution methods test growth across graded concentrations, often in twofold steps.

Assay [2] has as its system P. aeruginosa ATCC 27853 (APAE001). In words: MIC assay, CLSI broth microdilution. In kind it is cell-based. To be noted: Pseudomonas aeruginosa; ATCC27853; Mueller Hinton Broth, 35C, 20 hours. As to the method: as §1

A word on the MIC: it is the lowest concentration found to suppress growth. Read a high MIC as a need for much substance. `NCC[C@H](O)C(=O)N[C@@H]1C[C@H](N)[C@@H](O[C@H]2O[C@H](CNCCO)CC[C@H]2N)[C@H](O[C@@H]2O[C@H](CO)[C@@H](O[C@H]3O[C@@H](CN)[C@@H](O)[C@H](O)[C@H]3N)[C@H]2O)[C@H]1O` [1/20]: the minimal inhibitory concentration (MIC) in assay [1] and in assay [2] was not above 1 µg/mL in each case.
